In patent publication US20260041695A1, “COMBINATION THERAPIES FOR TREATMENT OF BREAST CANCER” (Genentech, Inc., priority 2019, published 2026):
Where two headings read alike, the source gives them in different places.

Key:
[1] = system: tumor cells bearing mutant PI3K; settings: cited from earlier work
[2] = target: Class I PI3K alpha isoform (Homo sapiens, UniProt P42336); settings: versus PI3K alpha; cited from earlier work
[3] = Phase Ib GDC-0077 + letrozole with or without palbociclib: pharmacokinetics; assay type: in vivo, human
PI3K pathway [4] = experiment: Phase I single-agent GDC-0077: pharmacodynamics; assay type: in vivo, human
Description: Pharmacodynamic activity was assessed pre- and on-study (after 2 weeks of daily GDC-0077 treatment) with FDG-PET scans, in tumor biopsies via immunohistochemistry (IHC), and in ctDNA samples (by FoundationACT).

[5] = Phase I single-agent GDC-0077: pharmacokinetics; assay type: in vivo, human
Description: To evaluate single dose pharmacokinetics (PK), frequent blood sampling was performed up to 48 hours after the initial dose at Cycle 1 Day 1. Once daily dosing was initiated from Cycle 1 Day 8 and blood sampling to evaluate PK at steady state was conducted at Cycle 1 Day 15.

[6] = Phase I/Ib GDC-0077 + fulvestrant: pharmacokinetics and food effect; assay type: in vivo, human
Description: Safety (NCI-CTCAE v4), PK, and preliminary antitumor activity (clinical benefit rate [CBR]: RECIST v1.1 stable disease for ≥24 weeks, partial response [PR], or complete response) were assessed. The effect of a standard high-fat meal on the PK of G was evaluated after a single dose and at steady state. Relevant signaling and pharmacodynamic (PD) biomarkers were assessed using circulating tumor (ct) DNA samples.

[7] = Phase I/Ib inavolisib + palbociclib + fulvestrant: pharmacokinetics; set-up: species or system human; settings: in vivo
[8] = system: locally advanced or metastatic PIK3CA-mutant solid tumors; experiment: Phase I single-agent GDC-0077: clinical activity (RECIST v1.1); assay type: in vivo, human
Description: Tumor assessments were performed by RECIST v1.1 at screening and every 8 weeks to assess preliminary anti-tumor activity.

[9] = system: MCF-7 (PIK3CA mutant E545K, ER+) breast carcinoma xenograft; experiment: MCF-7 xenograft efficacy; settings: for % TGI: G 25 mg/kg oral QD 21 days, P 50 mg/kg oral QD 21 days, F 200 mg/kg s.c. weekly 3 weeks, groups of 12 animals; for CR / PR: number of animals, groups of 12, doses as for % TGI
Description: Implant 0.36 mg estradiol pellets, s.c. between the scapulae, 1-3 days prior to cell implantation.
Set up CR female NCr nu/nu mice with 1×10^7 MCF7 tumor cells in 0% Matrigel sc in mammary fat pad.
Perform a pair match when tumors reach an average size of 180-220 mm^3, and begin treatment.
Caliper Measurement: biwk to end
Endpoint TGD. Animals are monitored individually. The endpoint of the experiment is a tumor volume of 2000 mm^3 or 45 days, whichever comes first. Responders can be followed longer. When the endpoint is reached, the animals are euthanized per SOP.

PI3K pathway [10] = experiment: Phase Ib GDC-0077 + letrozole with or without palbociclib: pharmacodynamics; assay type: in vivo, human
Description: Pharmacodynamic activity was assessed pre- and on-study (after 2 weeks of daily GDC-0077 treatment), in tumor biopsies via immunohistochemistry (IHC), and in ctDNA samples (by FoundationACT).

[11] = cited from earlier work
[12] = 19 patients with measurable disease
[13] = in combination with fulvestrant

Sequence of Class I PI3K alpha isoform (P42336 whole entry, canonical isoform): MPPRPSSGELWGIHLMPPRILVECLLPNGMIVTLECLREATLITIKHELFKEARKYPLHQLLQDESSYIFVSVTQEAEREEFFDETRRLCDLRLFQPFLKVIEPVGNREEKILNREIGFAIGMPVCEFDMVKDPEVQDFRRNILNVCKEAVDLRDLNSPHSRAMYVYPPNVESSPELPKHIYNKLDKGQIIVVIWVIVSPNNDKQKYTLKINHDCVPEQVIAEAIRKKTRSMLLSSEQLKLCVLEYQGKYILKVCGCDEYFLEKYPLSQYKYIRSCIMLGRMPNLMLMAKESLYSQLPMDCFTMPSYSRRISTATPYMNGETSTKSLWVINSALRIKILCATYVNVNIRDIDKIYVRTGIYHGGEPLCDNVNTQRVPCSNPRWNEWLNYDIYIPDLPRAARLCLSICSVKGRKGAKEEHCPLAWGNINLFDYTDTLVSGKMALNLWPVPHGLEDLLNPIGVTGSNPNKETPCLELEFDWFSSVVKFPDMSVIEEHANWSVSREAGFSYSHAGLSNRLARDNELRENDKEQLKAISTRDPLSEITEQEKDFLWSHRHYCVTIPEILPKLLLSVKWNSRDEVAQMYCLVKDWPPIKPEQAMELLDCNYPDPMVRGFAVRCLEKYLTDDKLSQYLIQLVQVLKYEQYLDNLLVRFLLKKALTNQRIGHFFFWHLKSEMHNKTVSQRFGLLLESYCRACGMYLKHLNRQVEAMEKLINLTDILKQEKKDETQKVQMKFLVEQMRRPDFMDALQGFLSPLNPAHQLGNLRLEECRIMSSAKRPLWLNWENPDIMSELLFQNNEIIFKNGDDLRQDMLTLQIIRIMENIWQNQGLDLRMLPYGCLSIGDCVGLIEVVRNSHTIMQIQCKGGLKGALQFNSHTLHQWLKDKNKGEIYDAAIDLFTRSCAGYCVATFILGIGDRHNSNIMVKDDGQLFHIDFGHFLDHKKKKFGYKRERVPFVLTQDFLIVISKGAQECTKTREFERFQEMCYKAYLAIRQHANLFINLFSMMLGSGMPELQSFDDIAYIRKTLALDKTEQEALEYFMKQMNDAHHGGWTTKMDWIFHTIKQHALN
Sequence of Class I PI3K alpha isoform (P27986 whole entry partner, canonical isoform): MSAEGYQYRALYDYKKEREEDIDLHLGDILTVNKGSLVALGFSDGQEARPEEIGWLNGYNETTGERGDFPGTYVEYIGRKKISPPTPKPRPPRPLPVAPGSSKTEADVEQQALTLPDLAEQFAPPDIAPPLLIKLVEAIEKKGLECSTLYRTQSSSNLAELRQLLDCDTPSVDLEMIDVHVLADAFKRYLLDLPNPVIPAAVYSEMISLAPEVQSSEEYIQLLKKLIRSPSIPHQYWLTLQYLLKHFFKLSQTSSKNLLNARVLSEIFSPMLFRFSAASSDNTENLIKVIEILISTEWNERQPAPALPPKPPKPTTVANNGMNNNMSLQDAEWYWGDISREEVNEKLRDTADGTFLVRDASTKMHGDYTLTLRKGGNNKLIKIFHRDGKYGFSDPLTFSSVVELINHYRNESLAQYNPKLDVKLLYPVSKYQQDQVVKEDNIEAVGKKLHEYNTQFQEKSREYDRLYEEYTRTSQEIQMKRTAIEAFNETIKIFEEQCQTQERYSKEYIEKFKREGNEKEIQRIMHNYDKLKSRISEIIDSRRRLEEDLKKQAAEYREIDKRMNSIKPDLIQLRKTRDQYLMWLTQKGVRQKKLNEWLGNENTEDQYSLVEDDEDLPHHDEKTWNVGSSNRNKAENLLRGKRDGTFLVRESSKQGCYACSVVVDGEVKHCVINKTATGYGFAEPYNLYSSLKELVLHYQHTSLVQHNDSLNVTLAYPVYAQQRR

For `C[C@H](Nc1ccc2c(c1)OCCn1cc(N3C(=O)OC[C@H]3C(F)F)nc1-2)C(N)=O` [GDC-0077, (S)-2-((2-((S)-4-(difluoromethyl)-2-oxooxazolidin-3-yl)-5,6-dihydrobenzo[f]imidazo[1,2-d][1,4]oxazepin-9-yl)amino)propanamide], the “potency in tumor cells bearing mutant PI3K over wild type (WT) PI3K cells” value [1] is listed as “increased potency”, the colitis (9 patients treated ≥5 months) is listed as “No colitis” and the MTD (QD, single agent) is listed as 9 mg. For the same compound, the Dose-limiting toxicities (at 12 mg (1 Grade 4 hyperglycemia, 1 Grade 3 fatigue)) was 2 patients, the “treatment related high-grade gastrointestinal toxicities” value (treatment-related diarrhea events all Grade 1-2) was “No treatment related high-grade gastrointestinal toxicities” and the “fold less potent biochemical inhibition for other Class I PI3K beta, delta, and gamma isoforms” value [2] was > 300 fold. For the same compound, the “plasma exposure of GDC-0077, single agent versus combination arms” value ([3]; Preliminary results) was “similar”, the “drug-drug interaction with concomitant medications (palbociclib and letrozole)” value ([3]; in vivo) was “no drug-drug interaction” and the FDG-PET scans (PI3K pathway [4]; baseline and after 2 weeks of daily GDC-0077) was “metabolic responses at all dose levels evaluated”. For the same compound, the “PI3K pathway activity in paired tumor biopsies by IHC for phosphoproteins” value (PI3K pathway [4]; in vivo) was “Decreased”, the “ctDNA PIK3CA mutant allele frequency” value (PI3K pathway [4]; over time, majority of specimens) was “Decreased” and the “PK variability (% CV) for Cmax and AUC0-24” value ([5]; after a single dose and at steady state at MTD (9 mg)) was ~20%. For the same compound, the half-life ([5]; human, plasma, oral, following a single dose, read-out: Mean half-life (t1/2) (converted)) was 18.1 h, the “Plasma exposure versus dose” value ([5]; single and multiple doses) was “increased proportionally” and the “PK of GDC-0077 in combination with fulvestrant versus single-agent PK” value ([6]; in vivo) was “similar”. For the same compound, the “GDC-0077 exposures (Cmax and AUC0-24) in fasted or fed states” value ([6]; standard high-fat meal, single dose and steady state) was “Comparable”, the “drug-drug interactions with concomitant therapies (palbociclib and fulvestrant [and metformin])” value [7] was “no drug-drug interactions” and the “pharmacokinetics of inavolisib in combination with palbociclib+fulvestrant versus single-agent inavolisib” value [7] was “similar”. For the same compound, the “best overall response rate” value [8, 12] was 26%, the “confirmed overall response rate” value [8, 12] was 21% and the clinical benefit rate ([8]; 20 patients) was 45%. For the same compound, the clinical benefit ([8]; of 20 patients) was 9 patients, the “best overall response rate” value ([8]; overall, 20 patients) was 25% and the “confirmed PR” value ([8]; overall, 20 patients) was 4 patients. For the same compound, the “confirmed overall response rate” value ([8]; overall, 20 patients) was 20%, the “partial response (PR)” value ([8]; overall, 20 patients) was 5 patients and the overall response rate ([8]; patients with tumors harboring PIK3CA mutations (conclusions)) was 210%. For the same compound, the “% TGI” value [9] was 35%, the CR [9] was 0 and the PR [9] was 0. The “PI3K pathway effectors (pAKT, pS6) in paired tumor biopsies” value (PI3K pathway [10]; GDC-0077 with letrozole with or without palbociclib) was “Robust PD downregulation” and the “PIK3CA mutant allele frequency by ctDNA” value (PI3K pathway [10]; between Cycle 1 Day 1 and Cycle 1 Day 15, majority of available samples) was “decreased”.

In the case of `N#Cc1ccc(C(c2ccc(C#N)cc2)n2cncn2)cc1` [letrozole, 4,4′-((1H-1,2,4-triazol-1-yl)methylene)dibenzonitrile, reference compound], the “pharmacokinetics in combination with GDC-0077 versus single-agent PK reported in literature” value ([3]; in vivo) is reported as “comparable”.

In the case of `CC(=O)c1c(C)c2cnc(Nc3ccc(N4CCNCC4)cn3)nc2n(C2CCCC2)c1=O` [palbociclib, 6-acetyl-8-cyclopentyl-5-methyl-2-(5-(piperazin-1-yl)pyridin-2-ylamino)pyrido[2,3-d]pyrimidin-7(8H)-one], the “pharmacokinetics in combination with GDC-0077 versus single-agent PK reported in literature” value ([3]; in vivo) is given as “comparable”, the cycle delays [11, 13] is given as 36% and the dose holds [11, 13] is given as 54%. The “patients required ≥1 dose reduction of palbociclib” value [11, 13] was 34%, the cycle delays ([11]; in combination with letrozole) was 68% and the dose holds ([11]; in combination with letrozole) was 70%. The “patients required ≥1 dose reduction of palbociclib” value ([11]; in combination with letrozole) was 36%, the “% TGI” value [9] was 45% and the CR [9] was 0. The PR [9] was 0.

For `C[C@]12CC[C@@H]3c4ccc(O)cc4C[C@@H](CCCCCCCCC[S+]([O-])CCCC(F)(F)C(F)(F)F)[C@H]3[C@@H]1CC[C@@H]2O` (stereo partly drawn) [fulvestrant, (7α,17β)-7-{9-[(4,4,5,5,5-pentafluoropentyl)sulfinyl]nonyl}estra-1,3,5(10)-triene-3,17-diol], the “% TGI” value [9] was 52%, the CR [9] was 0 and the PR [9] was 0.
